Test results published in patent US12428455B2, “Dominant negative CEBPB and CEBPD proteins and methods of use for decreasing viability of neoplastic cells” (The Trustees of Columbia University in the City of New York, priority 2018, dated 2025).
No end group written: not given here.

How the values were obtained:
Format in all cases: cell-based
[1] = tested on: MDA-MB-231 breast cancer cells; assay: Cell number after peptide treatment, MDA-MB-231; conditions: 6 days, 0 μM to 50 μM; stock without BSA
Protocol: (§1) Replicate cultures were exposed to the peptides the for 6 days at the indicated concentrations. Stock solutions of the peptides were prepared in buffer without added bovine serum albumin (BSA).
Replicate cultures of HCT116, MDA-MB 231, MCF7, and T98G cells were exposed to a 50/50 by concentration mixture of CP-DN-CEBPB and CP-DN-CEBPD for 6 days at doses of 0 μM to 50 μM. Stock solutions of the peptides were prepared in buffer without added bovine serum albumin (BSA).
Replicate cultures of T98G, HCT116, MDA-MB 231, and MCF7 cells were exposed to CP-DN-CEBPB, CP-DN-CEBPD, or a CP-DN-CEBPD in which heptad repeat leucine residues were mutated to glycine residues for 6 days at doses of 0 μM to 50 μM. Stock solutions of the peptides were prepared in buffer without added bovine serum albumin (BSA).

[2] = tested on: U251 gliblastoma multiforme cells; assay: Cell number after peptide treatment, U251; conditions: 6 days, 0 μM to 50 μM; stock without BSA
Protocol: as §1

A549 lung cancer cells = assay: Cell number after peptide treatment, A549; conditions: 6 days, 0 μM to 50 μM; stock without BSA
Protocol: (§2) Replicate cultures of MDA-MB-468 breast cancer cells, A549 lung cancer cells and 293T transformed embryonic kidney cells were exposed to CP-DN-CEBPB or CP-DN-CEBPD, for 6 days at doses of 0 μM to 50 μM. […] Stock solutions of the peptides were prepared in buffer without added bovine serum albumin (BSA).

[3] = tested on: 293T transformed embryonic kidney cells; assay: Cell number after peptide treatment, 293T; conditions: 6 days, 0 μM to 50 μM; stock without BSA
Protocol: as §2

[4] = tested on: MCF10A non-cancer human breast epithelial cells; assay: Cell number after peptide treatment, MCF10A; conditions: 6 days, 0 μM to 50 μM; stock without BSA
Protocol: (§3) Replicate cultures of HIEC-6 non-cancer human intestinal epithelial cells, MCF10A non-cancer human breast epithelial cells, or normal human astrocytes were exposed to CP-DN-CEBPB or CP-DN-CEBPD, for 6 days at doses of 0 μM to 50 μM. […] Stock solutions of the peptides were prepared in buffer without added bovine serum albumin (BSA).

normal human astrocytes = assay: Survival after peptide treatment, astrocytes; conditions: 6 days, 0 μM to 50 μM; stock without BSA
Protocol: as §3

T98G cells [5] = assay: Scratch migration assay, T98G; conditions: 20 hours, 20 μM or 40 μM
Protocol: Monolayers of MDA-MB 231 or T98G cells were subjected to formation of a scratch at 0 time and cultured for 20 hours in 20 μM or 40 μM CP-DN-CEBPB and CP-DN-CEBPD. Multiple images taken at 0 time and after 20 hours were analyzed for gap width of the scratches into which cells migrated or not. Example images for T98G are found in FIG. 22A, with compiled data for the T98G samples in FIG. 22B. Example images for MDA-MB 231 are found in FIG. 22C, with compiled data for the MDA-MB 231 samples in FIG. 22D.

[6] = tested on: MCF10A non-cancer human breast epithelial cells; assay: Morphology after peptide treatment, MCF10A; conditions: 5 to 6 days, 20 μM or 50; stock without BSA
Protocol: Stock solutions of the peptides were prepared in buffer without added bovine serum albumin (BSA).

HCT116 cells [7] = assay: Apoptotic nuclei, propidium iodide flow cytometry, HCT116; conditions: 20 μM, 3 days, vs untreated cells
Protocol: (§4) MDA-MB-231, MCF7, HCT116 and T98G cancer cell lines were treated for 3 days with 20 μM CP-dn-CEBPB and CP-dn-CEBPD peptides from stock solutions prepared without additives. Cultures were stained with propidium iodide and assessed for proportion of cells with apoptotic nuclei by flow cytometry.

T98G cells [8] = assay: Apoptotic nuclei, propidium iodide flow cytometry, T98G; conditions: 20 μM, 3 days, vs untreated cells
Protocol: as §4

HCT116 cells [9] = assay: Combination with gamma radiation, cell number, HCT116; conditions: 2 Gy or 5 Gy; peptide 0.05, 0.5 or 5 μM one day later, 6 days; CI<1 indicates synergism
Protocol: (§5) Replicate cultures of T98G and HCT116 cells were exposed to 2 Gy or 5 Gy of gamma radiation. One day later, the cultures were treated with 0.05 μM, 0.5 μM, or 5 μM CP-dn-CEBPB and CP-dn-CEBPD peptides, maintained for 6 days, and then assessed for cell number. The bar graphs of FIGS. 24A (T98G, CP-dn-CEBPB), 24C (T98G, CP-dn-CEBPBD, 24E (HCT116, CP-dn-CEBPD), and 24G (HCT116, CP-dn-CEBPD) show relative cell numbers for each condition as compared to untreated controls. The line graphs of FIGS. 24B (T98G, CP-dn-CEBPB), 24D (T98G, CP-dn-CEBPBD, 24F (HCT116, CP-dn-CEBPB), and 24H (HCT116, CP-dn-CEBPD) show the response as normalized in each case so that 100 represents the relative number of surviving cells that received the indicated level of radiation treatment, but no peptide treatment. Calculated Combination Indexes (CI) are T98G, CI=0.61±0.05 for CP-dn-CEBPB, 0.68±0.07 for CP-dn-CEBPD; HCT116, 0.89±0.04 for CP-dn-CEBPB, 0.86±0.05 for CP-dn-CEBPD. CI=1 indicates additivity; CI<1 indicates synergism; CI>1 indicates antagonism.

T98G and HCT116 cells = assay: Combination with gamma radiation, overall conclusion; conditions: 2 Gy or 5 Gy; immediate or delayed peptide treatment
Protocol: Replicate cultures of T98G and HCT116 cells were exposed to 2 Gy or 5 Gy of gamma radiation. Immediately, the cultures were treated with 3 μM, 10 μM, or 20 μM CP-dn-CEBPB and CP-dn-CEBPD peptides, maintained for 6 days, and then assessed for cell number. […]
as §5, with “CI=1 indicates additivity; CI<1 indicates synergism; CI>1 indicates antagonism.” left out

## RQIKIWFQNRRMKWKKLETQHKVLELTAENERLQKKVEQLSRELSTLRNLFKQL [CP-DN-CEBPB]
[1]
  growth and survival / numbers of MDA-MB-231 cells: decrease in growth and survival
[2]
  growth and survival of U251 cells: decrease in growth and survival
A549 lung cancer cells
  number of A549 cells: dose-dependent decrease in the number
[3]
  number of 293T cells: dose-dependent decrease in the number
[4]
  number of MCF10A cells: did not cause a dose-dependent decrease
Normal human astrocytes
  survival of astrocytes: neither CP-DN-CEBPB or CP-DN-CEBPD affected survival of astrocyte
T98G cells [5]
  cell migration into scratch (gap width): able to inhibit migration
[6]
  morphology of MCF10A cells: did not affect the morphology
HCT116 cells [7]
  proportion of cells with apoptotic nuclei: increased apoptotic cell death
T98G cells [8]
  proportion of cells with apoptotic nuclei: increased apoptotic cell death
HCT116 cells [9]
  Combination Index (CI) with gamma radiation: 0.89±0.04
T98G and HCT116 cells
  kind of combined effect with gamma radiation: synergistic effect

## RQIKIWFQNRRMKWKKLVELSAENEKLHQRVEQLTRDLAGLRQFFK [CP-DN-CEBPD]
[1]
  growth and survival / numbers of MDA-MB-231 cells: decrease in growth and survival
[2]
  growth and survival of U251 cells: decrease in growth and survival
A549 lung cancer cells
  number of A549 cells: dose-dependent decrease in the number
[3]
  number of 293T cells: dose-dependent decrease in the number
[4]
  number of MCF10A cells: did not cause a dose-dependent decrease
Normal human astrocytes
  survival of astrocytes: neither CP-DN-CEBPB or CP-DN-CEBPD affected survival of astrocyte
T98G cells [5]
  cell migration into scratch (gap width): able to inhibit migration
[6]
  morphology of MCF10A cells: did not affect the morphology
HCT116 cells [7]
  proportion of cells with apoptotic nuclei: increased apoptotic cell death
T98G cells [8]
  proportion of cells with apoptotic nuclei: increased apoptotic cell death
HCT116 cells [9]
  Combination Index (CI) with gamma radiation: 0.86±0.05
T98G and HCT116 cells
  kind of combined effect with gamma radiation: synergistic effect
